Reference: patent US5010058A, “3,5,6-substituted derivatives of 1,2-O-isopropylidene-α,D-glucofuranose and intermediates for preparing these derivatives” (501 Greenwich Pharmaceuticals Incorporated, priority 1989, dated 1991)

Tests used:
[1] = test system: BUD-8 skin cell fibroblasts; assay: Proliferation of BUD-8 skin cell fibroblasts (3H-thymidine uptake); assay type: cell-based, human; conditions: for 3H-Thymidine uptake by BUD-8 skin cells: triplicates ± SD
Description: The human skin cell fibroblast line, BUD-8, was originally derived from the normal skin of a person and can now be obtained from the American Type Culture Collection.
The number of BUD-8 cells was expanded for use by culture in 25 cm^2 flasks at 37° C. in an atmosphere of 5% CO2 in air. At approximately 4-5 five day intervals, or when confluence was reached, the cells were passaged. This was accomplished by detaching the cells with a Teflon scraper, washing and reseeding the cells at a lower density into fresh tissue culture flasks.
The effect of these compound on the proliferative capacity of human BUD-8 skin fibroblasts was measured with the use of a ^3 H-thymidine incorporation assay using culture conditions which were similar to those used for the Con-A blastogenesis assay, described previously. Cultured skin cells were detached from the surface of tissue culture flasks mechanically with a Teflon scraper. The cells were washed, resuspended in incubation medium and the viabilities were determined. These cells were then plated in triplicate at a density of 2×10^3 cells/0.1 ml/microtiter well for the proliferation assays. […] Eighteen hours later, each of the BUD-8 cultures was examined morphologically for evidence of compound-induced toxicity such as cell rounding or granularity. The thymidine-pulsed cells were then precipitated and the amount of ^3 H-thymidine incorporation was counted in a liquid scintillation counter. […]
^a Experimental compounds were first suspended in DMSO or ethanol,
^b The effect of experimental compounds on the proliferation of BUD8

[2] = test system: normal spleen cells / splenic T-lymphocytes (Con-A stimulated); conditions: THERAFECTIN comparison; cited from earlier work
[3] = in vivo; cited from earlier work

Structure (SMILES)	anti-proliferative effect on skin cells [1]	inhibition at 1 µg/mL ([1]; Homo sapiens, Fibroblast, compound 1 ug/ml, percent change from no compound, read-out: 3H-Thymidine uptake by BUD-8 skin cells, % effect)	inhibition at 10 µg/mL ([1]; Homo sapiens, Fibroblast, compound 10 ug/ml, percent change from no compound, read-out: 3H-Thymidine uptake by BUD-8 skin cells, % effect)	inhibition at 25 µg/mL ([1]; Homo sapiens, Fibroblast, compound 25 ug/ml, percent change from no compound, read-out: 3H-Thymidine uptake by BUD-8 skin cells, % effect)	inhibition at 100 µg/mL ([1]; Homo sapiens, Fibroblast, compound 100 ug/ml, percent change from no compound, read-out: 3H-Thymidine uptake by BUD-8 skin cells, % effect)	inhibition at 300 µg/mL ([1]; Homo sapiens, Fibroblast, compound 300 ug/ml, percent change from no compound, read-out: 3H-Thymidine uptake by BUD-8 skin cells, % effect)	inhibition at 750 µg/mL ([1]; Homo sapiens, Fibroblast, compound 750 ug/ml, percent change from no compound, read-out: 3H-Thymidine uptake by BUD-8 skin cells, % effect)	3H-Thymidine uptake by BUD-8 skin cells ([1]; compound 1 ug/ml)	3H-Thymidine uptake by BUD-8 skin cells ([1]; compound 10 ug/ml)	3H-Thymidine uptake by BUD-8 skin cells ([1]; compound 25 ug/ml)	3H-Thymidine uptake by BUD-8 skin cells ([1]; compound 100 ug/ml)	3H-Thymidine uptake by BUD-8 skin cells ([1]; compound 300 ug/ml)	3H-Thymidine uptake by BUD-8 skin cells ([1]; compound 750 ug/ml)	usual concentration for significant inhibition [2]	toxicity [3]	utility in rheumatoid arthritis [3]
CCCCCCCOC1C(C(C)O)OC2OC(C)(C)OC21 [Ex. 3, 1,2-O-Isopropylidene-3-O-(n-heptyl)-6-deoxy-α,D-glucofuranose]	anti-proliferative effect that was statistically significant	58%	49%	19%	30%	66%	43%	2,589 ± 202 cpm	3,139 ± 232 cpm	4,978 ± 632 cpm	4,288 ± 723 cpm	2,067 ± 302 cpm	3,496 ± 1,084 cpm	–	–	–
CN(C)CCCO[C@@H]1[C@H]2OC(C)(C)O[C@H]2O[C@@H]1[C@H](O)CO [THERAFECTIN, 1,2-O-Isopropylidene-3-O-3('N,N'-dimethylamino-n-propyl)-α,D-glucofuranose]	–	–	–	–	–	–	–	–	–	–	–	–	–	1,000 ug/ml	little toxicity	demonstrated utility in managing the signs and symptoms of rheumatoid arthritis
